Results taken from US4535075A, “Dithiolane derivative, process for producing the same and use thereof” (Nihon Nohyaku Co., Ltd., priority 1982, dated 1985).

Tested on: liver damage induced by carbon tetrachloride
Test: Protective (Controlling) effect on liver damage induced by carbon tetrachloride
Assay type: in vivo, mice (dd strain)
Conditions: for p-GPT: CCl4 alone >2,100; for Liver Damage Index: average of 5 mice, CCl4 alone 5.0
From the text: Protective (Controlling) Effect on liver damage induced by carbon tetrachloride.
Carbon tetrachloride administration induces centrilobular necrosis of the liver associated with loss of diphosphopyridine nucleotide, hepatic glycogen, coenzyme A and increase in neutral fat. Release of several enzymes from the hepatocytes, and increases of enzyme activities in the plasma are recognized as the result of the damage of the liver.
A suitable means for evaluating the degree induced by carbon tetrachloride or the degree of protection afforded by drugs is to study the plasma glutamic-pyruvic transaminase (p-GPT) activity. […]
After 6 hours, carbon tetrachloride was administered orally 0.05 ml/kg.
Animals were killed 24 hours after carbon tetrachloride administration, and the liver was grossly observed.
The plasma was obtained by centrifugation. Activity of p-GPT were determined by the method of Reitman and Frankel and expressed in Karmen units.
Score for liver damage index was as follows:
1 Each figure indicated average of 5 mice.

[1] = 250 mg/kg p.o., CCl4 0.05 ml/kg after 6 h, 24 h
[2] = 250 mg/kg p.o., CCl4 0.05 ml/kg after 6 h, 24 h, 0 Normal, 2 Slightly recognized, 4 Clearly observable damage, 6 Heavy damage

SMILES	p-GPT [1] [Karmen units]	Liver Damage Index [2]	Liver Damage Index (administered at 100 mg/kg p.o., scale 0 Normal to 6 Heavy damage)	p-GPT (administered at 100 mg/kg p.o.) [Karmen units]
CCOC(=O)C(C(C)=O)=C1SC2OC(=O)OC2S1 (stereo not drawn) [Compound 88]	211.6	1.4	–	–
CCCCOC(=O)C(C(C)=O)=C1SC2OC(=O)OC2S1 (stereo not drawn) [Compound 91]	27.9	0.8	–	–
CCCCCCC(=O)C(C(=O)OCC)=C1SC2OC(=O)OC2S1 (stereo not drawn) [Compound 105]	107.4	1.6	–	–
CCCCCCC(=O)C(C(=O)OCC)=C1SC(O)C(O)S1 (stereo not drawn) [Compound 54]	188	2.6	–	–
COC(=O)C(C#N)=C1SC(O)C(O)S1 (stereo not drawn) [Compound 24]	152	1.0	–	–
C=CCOC(=O)C(C(=O)OCC=C)=C1SC2OC(=O)OC2S1 (stereo not drawn) [Compound 84]	13.9	0	–	–
CCCOC(=O)C(C(C)=O)=C1SC2OC(=O)OC2S1 (stereo not drawn) [Compound 90]	23.2	0.3	–	–
O=C1OC2SC(=C(C(=O)OC3CCCCC3)C(=O)OC3CCCCC3)SC2O1 (stereo not drawn) [Compound 82]	159.7	0.4	–	–
CCOC(=O)C(C(=O)OCC)=C1SC2OC(=S)OC2S1 (stereo not drawn) [Compound 107]	42.6	0.6	–	–
C#CCOC(=O)C(C(=O)OCC#C)=C1SC2OC(=O)OC2S1 (stereo not drawn) [Compound 85]	30.3	0	–	–
CC(C)CCOC(=O)C(C#N)=C1SC(O)C(O)S1 (stereo not drawn) [Compound 31]	105	0.6	–	–
CCCCC(=O)C(C(=O)OCC)=C1SC2OC(=O)OC2S1 (stereo not drawn) [Compound 103]	14.7	0	–	–
COC(=O)C(C(=O)OC)=C1SC2OC(=O)OC2S1 (stereo not drawn) [Compound 72]	32.3	0	–	–
CCOC(=O)C(C(=O)Cc1ccccc1)=C1SC2OC(=O)OC2S1 (stereo not drawn) [Compound 106]	602.2	1.0	–	–
CCOC(=O)C(C(=O)C(C)C)=C1SC2OC(=O)OC2S1 (stereo not drawn) [Compound 102]	48.5	1.2	–	–
CCCOC(=O)C(C(=O)OCCC)=C1SC(OC(=O)CCC(=O)O)C(OC(=O)CCC(=O)O)S1 (stereo not drawn) [Compound 68]	–	2.0	–	–
CCC(C)OC(=O)C(C(=O)OC(C)CC)=C1SC2OC(=S)OC2S1 (stereo not drawn) [Compound 111]	18.6	0.8	–	–
CCCOC(=O)C(C(=O)OCCC)=C1SC2OC(=S)OC2S1 (stereo not drawn) [Compound 108]	31.0	0	–	–
C#CCOC(=O)C(C(C)=O)=C1SC2OC(=O)OC2S1 (stereo not drawn) [Compound 99]	18.4	0	–	–
CC(C)OC(=O)C(C(=O)OC(C)C)=C1SC2OC(=O)OC2S1 (stereo not drawn) [Compound 75]	19.9	0.2	–	–
CC(=O)C(C(=O)OCCC(C)C)=C1SC2OC(=O)OC2S1 (stereo not drawn) [Compound 96]	15.4	0	–	–
CCCC(=O)C(C(=O)OCC)=C1SC2OC(=O)OC2S1 (stereo not drawn) [Compound 101]	20.0	0.2	–	–
COC(=O)C(C(=O)OC)=C1SC(OC(=O)CCC(=O)O)C(OC(=O)CCC(=O)O)S1 (stereo not drawn) [Compound 70]	121.0	1.2	–	–

SMILES	p-GPT [1] [Karmen units]	Liver Damage Index [2]	Liver Damage Index (administered at 100 mg/kg p.o., scale 0 Normal to 6 Heavy damage)	p-GPT (administered at 100 mg/kg p.o.) [Karmen units]
CC(=O)OC1SC(=C(C(=O)OC(C)C)C(=O)OC(C)C)SC1O (stereo not drawn) [Compound 57, diisopropyl 4-hydroxy-5-methyl carbonyloxy-1,3-dithiolan-2-ylidenemalonate]	262.0	1.0	–	–
CC(C)(C)OC(=O)C(C(=O)OC(C)(C)C)=C1SC2OC(=O)OC2S1 (stereo not drawn) [Compound 79]	66.0	0.8	–	–
CC(C)CCOC(=O)C(C(=O)OCCC(C)C)=C1SC2OC(=O)OC2S1 (stereo not drawn) [Compound 81]	108.1	1.2	–	–
CCCCOC(=O)C(C#N)=C1SC(O)C(O)S1 (stereo not drawn) [Compound 28]	80	0.4	–	–
CCOC(=O)C(C(=O)CC)=C1SC(O)C(O)S1 (stereo not drawn) [Compound 49]	23	0.4	–	–
CC(C)COC(=O)C(C#N)=C1SC(O)C(O)S1 (stereo not drawn) [Compound 29]	175	1.0	–	–
CCCOC(=O)C(C(C)=O)=C1SC(OC(=O)OCC)C(OC(=O)OCC)S1 (stereo not drawn) [Compound 67]	127.7	0.8	–	–
CCC(C)OC(=O)C(C(=O)OC(C)CC)=C1SC(OC(=O)CCC(=O)O)C(OC(=O)CCC(=O)O)S1 (stereo not drawn) [Compound 71, di-sec-butyl 4,5-bis(2'-carboxyethylcarbonyloxy)-1,3-dithiolan-2-ylidenemalonate]	–	2.2	–	–
CC(=O)C(C(=O)OC(C)(C)C)=C1SC2OC(=O)OC2S1 (stereo not drawn) [Compound 94, 7-(methylcarbonyl-tert-butoxycarbonyl)methylene-3-oxo-2,4-dioxa-6,8-dithiabicyclo[3,3,0]octane]	26.5	0.8	–	–
CCC(C)OC(=O)C(C(=O)OC(C)CC)=C1SC2OC(=O)OC2S1 (stereo not drawn) [Compound 78]	96.0	0	–	–
CCOC(=O)C(C#N)=C1SC(O)C(O)S1 (stereo not drawn) [Compound 25]	–	2.0	–	–
CCCOC(=O)C(C(=O)OCCC)=C1SC(OC(=O)N(C)C)C(OC(=O)N(C)C)S1 (stereo not drawn) [Compound 64, di-n-propyl 4,5-bis (N,N-dimethylcarbamoyloxy)-1,3-dithiolane-2-ylidenemalonate]	–	3.4	–	–
CCOC(=O)C(C(=O)OCC)=C1SC2OC(=O)OC2S1 (stereo not drawn) [Compound 73]	75.1	0.8	–	–
CC(C)OC(=O)C(C(=O)OC(C)C)=C1SC(OC(=O)CCC(=O)O)C(OC(=O)CCC(=O)O)S1 (stereo not drawn) [Compound 69]	–	2.2	–	–
CCCCOC(=O)C(C(=O)OCCCC)=C1SC2OC(=O)OC2S1 (stereo not drawn) [Compound 76]	84.8	0.6	–	–
COC(=O)C(C(C)=O)=C1SC2OC(=O)OC2S1 (stereo not drawn) [Compound 87]	45.7	0.6	–	–
CC(C)COC(=O)C(C(=O)OCC(C)C)=C1SC2OC(=O)OC2S1 (stereo not drawn) [Compound 77]	21.2	0.2	–	–
CCOC(=O)C(C(=O)c1ccccc1)=C1SC(O)C(O)S1 (stereo not drawn) [Compound 56]	–	–	4.0	> 1418
CC(C)COC(=O)C(C(=O)OC(C)C)=C1SC2OC(=O)OC2S1 (stereo not drawn) [Compound 86]	> 436.4	0.6	–	–
CCCCCOC(=O)C(C(C)=O)=C1SC2OC(=O)OC2S1 (stereo not drawn) [Compound 95]	28.2	0.8	–	–
CCCOC(=O)C(C(C)=O)=C1SC(OC(=O)N(C)C)C(OC(=O)N(C)C)S1 (stereo not drawn) [Compound 65]	498.7	1.6	–	–
CC(=O)C(C(=O)OCC(C)C)=C1SC2OC(=O)OC2S1 (stereo not drawn) [Compound 92]	29.4	0.8	–	–
CCCCCOC(=O)C(C#N)=C1SC(O)C(O)S1 (stereo not drawn) [Compound 30]	116	0.6	–	–
